Values quoted from earlier work as cited in US10927398B2, “Compositions for CYP450 phenotyping using saliva samples” (Concordia University, Inc., priority 2015, dated 2021).
Like-named read-outs stand apart in the source and are kept apart here.

Experiments:
[1] = cited from earlier work
plasma protein = details: cited from earlier work
[2] = Table of Exemplary Drugs, CYP3A4
[3] = Table of Exemplary Drugs, CYP1A2
[4] = Table of Exemplary Drugs, CYP2C9
[5] = Table of Exemplary Drugs, CYP2D6
[6] = Table of Exemplary Drugs, CYP2C19

Structure (SMILES): CC[C@]1(O)C[C@@H]2CN(CCc3c([nH]c4ccccc34)[C@@](C(=O)OC)(c3cc4c(cc3OC)N(C)[C@H]3[C@@](O)(C(=O)OC)[C@H](OC(C)=O)[C@]5(CC)C=CCN6CC[C@]43[C@@H]65)C2)C1 [Vinblastine (Velbane), Vinblastine]
- HALF-LIFE [1, 2]: 24.8 h
- PLASMA PROTEIN BINDING (plasma protein; [2]): 98-99.7% ^

Structure (SMILES): CC/C(=C(\c1ccccc1)c1ccc(OCCN(C)C)cc1)c1ccccc1 [Tamoxifen]
- HALF-LIFE [1, 3]: ~120 to 170 h
- HALF-LIFE [1, 4]: 120 to 170 h
- HALF-LIFE [1, 5]: 120 to 170 h
- HALF-LIFE [1, 2]: 120 to 170 h
- PLASMA PROTEIN BINDING (plasma protein; [3]): 99%
- PLASMA PROTEIN BINDING (plasma protein; [4]): 99%
- PLASMA PROTEIN BINDING (plasma protein; [5]): 99%
- PLASMA PROTEIN BINDING (plasma protein; [2]): 99%

Structure (SMILES): C/C(=C\c1csc(C)n1)[C@@H]1C[C@@H]2O[C@]2(C)CCC[C@H](C)[C@H](O)[C@@H](C)C(=O)C(C)(C)[C@@H](O)CC(=O)N1 [Ixabepilone (Ixempra), Ixabepilone]
- HALF-LIFE [1, 2]: 52 h
- PLASMA PROTEIN BINDING (plasma protein; [2]): 67-77% ^

Structure (SMILES): C[C@@H]1C[C@H]2[C@@H]3CCC4=CC(=O)C=C[C@]4(C)[C@@]3(F)[C@@H](O)C[C@]2(C)[C@@]1(O)C(=O)CO [Dexmethasone (Decadron), Dexmethasone]
- PLASMA PROTEIN BINDING (plasma protein; plasma): 77%

Structure (SMILES): CCN(CC)CC#CCOC(=O)C(O)(c1ccccc1)C1CCCCC1 (stereo not drawn) [Oxybutynin (Ditropan), Oxybutynin]
- HALF-LIFE [1, 2]: 7 to 30 h
- PLASMA PROTEIN BINDING (plasma protein; [2]): 91-93% ^

Structure (SMILES): CC(C)(C)NC(=O)[C@@H]1C[C@@H]2CCCC[C@@H]2CN1C[C@@H](O)[C@H](Cc1ccccc1)NC(=O)[C@H](CC(N)=O)NC(=O)c1ccc2ccccc2n1 [Saquinavir (Invirase), Saquinavir]
- HALF-LIFE [1, 2]: 13 h
- PLASMA PROTEIN BINDING (plasma protein; [2]): 98%

Structure (SMILES): O=P1(N(CCCl)CCCl)NCCCO1 (stereo not drawn) [Cyclophosphamide]
- HALF-LIFE ([1]; in vivo): 3 to 12 h
- PLASMA PROTEIN BINDING (plasma protein; plasma): >60%

Structure (SMILES): NC(=O)N1c2ccccc2C=Cc2ccccc21 [Carbamazepine (eg. Tegretol), Carbamazepine]
- HALF-LIFE [1, 2]: 12 to 17 h
- PLASMA PROTEIN BINDING (plasma protein; [2]): 76%

Structure (SMILES): Cc1nnc2n1-c1ccc(Cl)cc1C(c1ccccc1Cl)=NC2 [Triazolam (Halcion), Triazolam]
- HALF-LIFE ([1]; in vivo): 2.3 h
- PLASMA PROTEIN BINDING (plasma protein; plasma): 89-94% ^

Structure (SMILES): C[C@H]1C[C@@H]2[C@H]([C@@H](O)C[C@@]3(C)[C@H]2CC[C@]3(O)C(=O)CO)[C@@]2(C)C=CC(=O)C=C12 [Methylprednisolone]
- HALF-LIFE [1, 2]: 2 to 3 h
- PLASMA PROTEIN BINDING (plasma protein; [2]): 78%

Structure (SMILES): CCCCN(CCCC)CCC(O)c1cc2c(Cl)cc(Cl)cc2c2cc(C(F)(F)F)ccc12 (stereo not drawn) [Halofantrine (Halfan), Halofantrine]
- HALF-LIFE [1, 2]: 140 to 240 h
- PLASMA PROTEIN BINDING (plasma protein; [2]): 60-70% ^

Structure (SMILES): [H]/N=C(\N/C(=N/[H])Nc1ccc(Cl)cc1)NC(C)C [Proguanil]
- HALF-LIFE [1, 6]: 12 to 18 h
- PLASMA PROTEIN BINDING (plasma protein; [6]): 75%

Structure (SMILES): Cc1c(O)cccc1C(=O)N[C@@H](CSc1ccccc1)[C@H](O)CN1C[C@H]2CCCC[C@H]2C[C@H]1C(=O)NC(C)(C)C [Nelfinavir]
- HALF-LIFE [1, 6]: 3.5 to 5 h
- PLASMA PROTEIN BINDING (plasma protein; [6]): 98%

Structure (SMILES): CCCC(C)(COC(N)=O)COC(=O)NC(C)C (stereo not drawn) [Carisoprodol]
- PLASMA PROTEIN BINDING (plasma protein; plasma): 60%

Structure (SMILES): CC(NC(C)(C)C)C(=O)c1cccc(Cl)c1 (stereo not drawn) [Bupropion]
- HALF-LIFE [1, 6]: 19 to 21.3 h
- HALF-LIFE [1, 2]: 19 to 21.3 h
- PLASMA PROTEIN BINDING (plasma protein; [6]): 84%
- PLASMA PROTEIN BINDING (plasma protein; [2]): 84%

Structure (SMILES): COCCCC/C(=N\OCCN)c1ccc(C(F)(F)F)cc1 [Fluvoxamine]
- HALF-LIFE [1, 3]: ~14 to 16 h
- HALF-LIFE [1, 5]: 15.6 h

Structure (SMILES): O=C1CCc2ccc(OCCCCN3CCN(c4cccc(Cl)c4Cl)CC3)cc2N1 [Aripiprazole]
- HALF-LIFE [1, 5]: 75 h
- PLASMA PROTEIN BINDING (plasma protein; [5]): >99%

Structure (SMILES): CSc1ccc2c(c1)N(CCC1CCCCN1C)c1ccccc1S2 (stereo not drawn) [Thioridazine]
- HALF-LIFE [1, 5]: 21 to 24 h

Structure (SMILES): OCCOCCN1CCN(C2=Nc3ccccc3Sc3ccccc32)CC1 [Quetiapine (Seroquel), Quetiapine]
- HALF-LIFE [1, 2]: 6 to 7 h
- PLASMA PROTEIN BINDING (plasma protein; [2]): 83%

Structure (SMILES): CC[C@H](C)C(=O)O[C@H]1C[C@@H](C)C=C2C=C[C@H](C)[C@H](CC[C@@H]3C[C@@H](O)CC(=O)O3)[C@H]21 [Lovastatin (Mevacor), Lovastatin]
- HALF-LIFE [1, 2]: 2 to 5 h
- PLASMA PROTEIN BINDING (plasma protein; [2]): >95%

Structure (SMILES): CCN(CC)CCNC(=O)c1c(C)[nH]c(/C=C2\C(=O)Nc3ccc(F)cc32)c1C [Sunitinib (Sutent), Sunitinib]
- HALF-LIFE [1, 2]: 40 to 60 h
- PLASMA PROTEIN BINDING (plasma protein; [2]): 95%

Structure (SMILES): CC[C@H](O)C(C[C@H](C)N(C)C)(c1ccccc1)c1ccccc1 [Levomethadyl (Orlaam), Levomethadyl]
- HALF-LIFE ([1]; in vivo): 35 to 60 h
- PLASMA PROTEIN BINDING (plasma protein; [2]): 80%

Structure (SMILES): CCCc1nn(C)c2c(=O)[nH]c(-c3cc(S(=O)(=O)N4CCN(C)CC4)ccc3OCC)nc12 [Sildenafil]
- HALF-LIFE [1, 4]: 4 h
- PLASMA PROTEIN BINDING (plasma protein; [4]): 96%
- PLASMA PROTEIN BINDING (plasma protein; [2]): 96%

Structure (SMILES): CN1CCN(C(=O)O[C@H]2c3nccnc3C(=O)N2c2ccc(Cl)cn2)CC1 [Eszopiclone (Lunesta), Eszopiclone]
- PLASMA PROTEIN BINDING (plasma protein; [2]): 52-59% ^

Structure (SMILES): CN1C(C(=O)Nc2ccccn2)=C(O)c2ccccc2S1(=O)=O [Piroxicam]
- HALF-LIFE [1, 4]: 50 h
- PLASMA PROTEIN BINDING (plasma protein; [4]): 99%

Structure (SMILES): CC[C@]1(O)C[C@H]2CN(CCc3c([nH]c4ccccc34)[C@@](C(=O)OC)(c3cc4c(cc3OC)N(C=O)[C@H]3[C@@](O)(C(=O)OC)[C@H](OC(C)=O)[C@]5(CC)C=CCN6CC[C@]43[C@@H]65)C2)C1 [Vincristine (Oncovin), Vincristine]
- HALF-LIFE [1, 2]: 85 h

Structure (SMILES): CN(CCOc1ccc(CC2SC(=O)NC2=O)cc1)c1ccccn1 (stereo not drawn) [Rosiglitazone]
- HALF-LIFE [1, 4]: 3 to 4 h

Structure (SMILES): CC1(C)NC(=O)N(c2ccc([N+](=O)[O-])c(C(F)(F)F)c2)C1=O [Nilutamide]
- HALF-LIFE [1, 6]: 38 to 59.1 h
- PLASMA PROTEIN BINDING (plasma protein; [6]): 80-84% ^

Structure (SMILES): CCN(CC)CCCC(C)Nc1c2ccc(Cl)cc2nc2ccc(OC)cc12 (stereo not drawn) [Quinacrine]
- HALF-LIFE [1, 2]: 120 h
- PLASMA PROTEIN BINDING (plasma protein; [2]): 80-90% ^

Structure (SMILES): CCN(CC)CCNC(=O)c1cc(Cl)c(N)cc1OC [Metoclopramide]
- HALF-LIFE [1, 5]: 5 to 6 h
- PLASMA PROTEIN BINDING (plasma protein; [5]): 30%

Structure (SMILES): O=C1CN=C(c2ccccc2Cl)c2cc([N+](=O)[O-])ccc2N1 [Clonazepam (Klonopin), Clonazepam]
- HALF-LIFE ([1]; in vivo): 30 to 40 h
- PLASMA PROTEIN BINDING (plasma protein; [2]): 85%

Structure (SMILES): C[C@]12C=CC(=O)C=C1CC[C@@H]1[C@@H]2[C@@H](O)C[C@@]2(C)[C@H]1CC[C@]2(O)C(=O)CO [Prednisolone]
- HALF-LIFE [1, 2]: 2 to 4 h
- PLASMA PROTEIN BINDING (plasma protein; [2]): 70-90% ^

Structure (SMILES): CC(C)c1nc(CN(C)C(=O)N[C@H](C(=O)N[C@@H](Cc2ccccc2)C[C@H](O)[C@H](Cc2ccccc2)NC(=O)OCc2cncs2)C(C)C)cs1 [Ritonavir (Norvir), Ritonavir]
- HALF-LIFE [1, 2]: 3 to 5 h

Structure (SMILES): CN[C@@H](C)Cc1ccccc1 [Dextromethamphetamine]
- HALF-LIFE [1, 5]: 12 h

Structure (SMILES): Fc1ccc([C@@H]2CCNC[C@H]2COc2ccc3c(c2)OCO3)cc1 [Paroxetine]
- HALF-LIFE [1, 5]: 15 to 21 h
- PLASMA PROTEIN BINDING (plasma protein; [5]): 93-95% ^

Structure (SMILES): Cc1ccc(-c2cc(C(F)(F)F)nn2-c2ccc(S(N)(=O)=O)cc2)cc1 [Celecoxib]
- HALF-LIFE [1, 4]: 11 h
- PLASMA PROTEIN BINDING (plasma protein; [4]): 97%

Structure (SMILES): CN1C(=O)NC(=O)C(C)(C2=CCCCC2)C1=O (stereo not drawn) [Hexobarbital]
- PLASMA PROTEIN BINDING (plasma protein; [6]): 25%

Structure (SMILES): CCC(C)n1ncn(-c2ccc(N3CCN(c4ccc(OCC5COC(Cn6cncn6)(c6ccc(Cl)cc6Cl)O5)cc4)CC3)cc2)c1=O (stereo not drawn) [Itraconazole (Sporanox), Itraconazole]
- HALF-LIFE [1, 2]: 35 to 64 h

Structure (SMILES): NS(=O)(=O)Cc1noc2ccccc12 [Zonisamide (Zonegran), Zonisamide]
- PLASMA PROTEIN BINDING (plasma protein; [2]): 40-60% ^

Structure (SMILES): CN(C)C[C@H]1CCCC[C@]1(O)c1cccc(O)c1 [O-desmethyltramadol]
- HALF-LIFE [1, 5]: 9 h

Structure (SMILES): O=C(CCCN1CC=C(n2c(=O)[nH]c3ccccc32)CC1)c1ccc(F)cc1 [Droperidol]
- HALF-LIFE [1, 2]: 2 h

Structure (SMILES): Cc1nc2n(c(=O)c1CCN1CCC(c3noc4cc(F)ccc34)CC1)CCCC2 [Risperidone]
- HALF-LIFE [1, 5]: 3 to 20 h

Structure (SMILES): CN(C)CCC(c1ccc(Cl)cc1)c1ccccn1 (stereo not drawn) [Chlorphenamine]
- PLASMA PROTEIN BINDING (plasma protein; [5]): 72%

Structure (SMILES): O=c1[nH]c2ccccc2n1C1CCN(CCCC(c2ccc(F)cc2)c2ccc(F)cc2)CC1 [Pimozide (Orap), Pimozide]
- HALF-LIFE [1, 2]: 55 h

Structure (SMILES): Cc1ccc(-c2nc3ccc(C)cn3c2CC(=O)N(C)C)cc1 [Zolpidem (Ambien), Zolpidem]
- HALF-LIFE ([1]; in vivo): 2.5 to 2.8 h

Structure (SMILES): C=C(C)[C@H]1CC=C(C)CC1 [Limonene]
- HALF-LIFE [1, 6]: 12 to 24 h

Structure (SMILES): C1CCC(C(CC2CCCCN2)C2CCCCC2)CC1 (stereo not drawn) [Perhexiline]
- HALF-LIFE [1, 5]: 12 to 18 h

Structure (SMILES): COc1ccc(Cl)cc1C(=O)NCCc1ccc(S(=O)(=O)NC(=O)NC2CCCCC2)cc1 [Glibenclamide]
- PLASMA PROTEIN BINDING (plasma protein; [4]): 99%

Structure (SMILES): CCCCNC(=O)NS(=O)(=O)c1ccc(C)cc1 [Tolbutamide]
- HALF-LIFE [1, 4]: 4.5 to 6.5 h

Structure (SMILES): Cc1cc(-c2ccccc2)nnc1NCCN1CCOCC1 [Minaprine]
- HALF-LIFE [1, 5]: 2 to 2.5 h
